For assay [1], the target named is T1, GKRP (Glucokinase Regulatory Protein) with human His-hepatic GK (Homo sapiens, UniProt Q14397).
T1 sequence (Q14397 1-625): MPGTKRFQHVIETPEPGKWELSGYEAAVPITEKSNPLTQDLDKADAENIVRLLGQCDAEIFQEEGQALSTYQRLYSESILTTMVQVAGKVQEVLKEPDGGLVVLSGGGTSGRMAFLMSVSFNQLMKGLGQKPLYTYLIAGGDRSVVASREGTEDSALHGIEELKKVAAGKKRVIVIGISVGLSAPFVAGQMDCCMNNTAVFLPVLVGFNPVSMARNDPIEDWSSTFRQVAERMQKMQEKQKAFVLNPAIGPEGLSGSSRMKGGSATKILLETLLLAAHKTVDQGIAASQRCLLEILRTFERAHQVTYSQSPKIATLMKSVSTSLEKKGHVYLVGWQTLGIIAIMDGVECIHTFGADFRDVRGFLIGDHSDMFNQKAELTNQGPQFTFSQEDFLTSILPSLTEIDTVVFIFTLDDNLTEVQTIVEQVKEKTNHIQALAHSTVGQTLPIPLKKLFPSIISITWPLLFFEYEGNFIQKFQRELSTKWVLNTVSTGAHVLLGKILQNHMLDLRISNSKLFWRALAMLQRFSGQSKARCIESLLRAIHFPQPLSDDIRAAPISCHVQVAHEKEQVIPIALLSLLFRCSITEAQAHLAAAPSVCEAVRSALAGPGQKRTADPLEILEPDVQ
As to the kind of experiment: GKRP NADPH Coupled Assay. It counts as biochemical. Particulars: GK-GKRP EC50 (NADPH-coupled), indirect measure of glucose-6-phosphate, fluorescence; 1 μM GKRP (10×), 20 nM GK (5×). The protocol:
(§1) This assay is used to directly measure the formation of ^13C-glucose-6-phosphate from ^13C-glucose by liquid chromatography-mass spectrometry (LC MS/MS). Begin by preparing the following solutions: Compound Buffer (CB): 50 mM Tris, pH 7.5/4 mM MgCl2/6% DMSO/fresh 10 mM DTT from 1M frozen stock. Enzyme Buffer (EB): 50 mM Tris, pH 7.5/4 mM MgCl2/6% DMSO/fresh 0.1% BSA/fresh 0.01% Brij-35 (10% BSA and 1% Brij-35 stock). GK (Glucokinase) Working Stock (5×): Dilute human His-hepatic GK to 30 nM in EB buffer. […] After 30 minutes add 10 μl of GK Working Stock (5×). Re-seal the plate and incubate for another 30 minutes at room temperature while mixing. After the second 30 minutes, stop the reaction by the addition of 50 μl of 100% acetonitrile, seal, and mix for 5-10 minutes. Run 10 μl of this sample through the LC MS/MS (API 3200, Applied Biosystems Inc., Carlsbad, Calif.).
This assay is used as an indirect measure of glucose-6-phosphate (G6P) formed from glucose due to the enzymatic activity of glucokinase. Assay format is the same as for GKRP LC MS/MS Biochemical Assay with the following exceptions. GK Working Stock (5×): Dilute human His-hepatic GK to 20 nM in EB buffer. Stop & Detection Reagent (2×): Dilute β-nicotinamide adenine dinucleotide phosphate sodium salt (β-NADP) (Aldrich-Sigma, St. Louis, Mo.) to 2 mM from 100 mM stock (stock in 10 mM Tris, pH 9.2) and dilute glucose-6-phosphate dehydrogenase (Aldrich-Sigma, St. Louis, Mo.) to 0.04 Unit/μl from 10 Unit/μl (stock in 10 mM Tris pH 7.5/0.05% Brij-35) in 0.2 M Tris, pH 9.2/8% DMSO. After the initial 30 minute incubation add 10 μl of 20 nM GK diluted in EB (5×). Re-seal the plate and incubate for another 1 hour at room temperature while mixing. After 1 hour remove the seal and add 50 μl of Stop & Detection Reagent and incubate for 5 minutes at room temperature while mixing.

Assay [2] deals with T1, GKRP (Glucokinase Regulatory Protein) with human His-hepatic GK. As to the kind of experiment: GKRP LC MS/MS Biochemical Assay. Particulars: 13C-glucose-6-phosphate formation, 1 μM GKRP (10×), 30 nM GK (5×). The protocol:
GKRP LC MS/MS Biochemical Assay
as §1

Assay [3] has the same target. The experiment in a line: biochemical. Conditions: 13C-glucose-6-phosphate formation; 280 nM GKRP (10×), 30 nM GK (5×); read-out: GK-GKRP EC50 (LC MS/MS-2). In short, it runs like this:
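Product formation, 13C-glucose-6-phosphate from 13C-glucose, was measured directly by LC MS/MS after acetonitrile quench. The GK reaction ran 30 min at room temperature in Tris pH 7.5 buffer with 4 mM MgCl2 and 6% DMSO. The 5× enzyme stock was 30 nM His-tagged human hepatic glucokinase.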

The mark [4] stands for this setting: read-out: GK-GKRP EC50 (LC MS/MS).

Structures can show the parent of a compound that is named as a salt.

In turn, `CC(O)(c1ccc(N2CCN(S(=O)(=O)c3cccs3)CC2CC2CCOCC2)cc1)C(F)(F)F` (single isomer, unassigned) [Example 37 Peak #4, 1,1,1-trifluoro-2-(4-(2-(tetrahydro-2H-pyran-4-ylmethyl)-4-(2-thiophenylsulfonyl)-1-piperazinyl)phenyl)-2-propanol] returned an EC50 in assay [1] of over 50000 nM. Turning to `O=S(=O)(c1cccs1)N1CCN(c2ccc(C(O)(C(F)(F)F)C(F)(F)F)cc2-c2cccc(F)c2)CC1` [Example 71, 1,1,1,3,3,3-hexafluoro-2-(3′-fluoro-6-(4-(2-thiophenylsulfonyl)-1-piperazinyl)-3-biphenylyl)-2-propanol], the EC50 in assay [1] amounted to 3670 nM; in assay [2] (GK-GKRP EC50 (LC MS/MS)), 1840 nM. With `CC(O)(c1ccc(N2CCN(S(=O)(=O)c3cccs3)CC2CC2CCOCC2)cc1)C(F)(F)F` (single isomer, unassigned) [Example 37 Peak #3, 1,1,1-trifluoro-2-(4-(2-(tetrahydro-2H-pyran-4-ylmethyl)-4-(2-thiophenylsulfonyl)-1-piperazinyl)phenyl)-2-propanol], in assay [1], the EC50 stood at 13000 nM.

Take `CC(O)(c1ccc(N2CCN(S(=O)(=O)c3cccs3)C[C@@H]2Cn2ccnc2)cc1)C(F)(F)F` (mixture of isomers) [Example 170, 2-(4-((S)-2-((1H-imidazol-1-yl)methyl)-4-(thiophen-2-ylsulfonyl)piperazin-1-yl)phenyl)-1,1,1-trifluoro-2-propanol]: the EC50 in assay [1] was found to be 762 nM; in assay [3] it was 942 nM. With `C[C@H]1COCCN1CC1CN(S(=O)(=O)c2cccs2)CCN1c1ccc(C(C)(O)C(F)(F)F)cc1` (single isomer, unassigned) [Example 45 Peak #3], in assay [1], the EC50 amounted to 15100 nM. As for `O=S(=O)(c1cccs1)N1CCN(c2ccc(C(O)(C(F)(F)F)C(F)(F)F)cc2)C[C@H]1C1CC1` [Example 14, 2-(4-((3R)-3-cyclopropyl-4-(2-thiophenylsulfonyl)-1-piperazinyl)phenyl)-1,1,1,3,3,3-hexafluoro-2-propanol], the EC50 in assay [1] stood at 5000 nM. Molecule `O=S(=O)(c1cccs1)N1CCN(c2ccc(C(O)(CO)C(F)(F)F)cc2)[C@@H](Cc2ccccc2)C1` (single isomer, unassigned) [Example 68 Peak #1] had an EC50 in assay [2] (GK-GKRP EC50 (LC MS/MS)) of 870 nM.

On to `CC(O)(c1ccc(N2CCN(S(=O)(=O)c3cccs3)CC2CN2CC[C@@H](O)C2)cc1)C(F)(F)F` (mixture of isomers) [Example 56, (3R)-1-((4-(2-thiophenylsulfonyl)-1-(4-(2,2,2-trifluoro-1-hydroxy-1-methylethyl)phenyl)-2-piperazinyl)methyl)-3-pyrrolidinol], for which the EC50 in assay [1] stood at 3500 nM. In assay [2] (GK-GKRP EC50 (LC MS/MS)), `O=S(=O)(c1cccs1)N1CCN(c2ccc(C(O)(CO)C(F)(F)F)cc2)[C@@H](Cc2ccccc2)C1` (single isomer, unassigned) [Example 68 Peak #2] came in with an EC50 of 94 nM.

As for `C[C@H]1CN(S(=O)(=O)c2nccs2)CCN1c1ccc(C(C)(O)C(F)(F)F)cc1` (single isomer, unassigned) [Example 34 Peak #1], the EC50 in assay [1] worked out at 2500 nM.

In assay [2] (GK-GKRP EC50 (LC MS/MS)), `CC(O)(c1ccc(N2CCN(S(=O)(=O)c3ccccc3)CC2)cc1)C(F)(F)F` (single isomer, unassigned) [Example 24 Peak #2, 1,1,1-trifluoro-2-(4-(4-(phenylsulfonyl)-1-piperazinyl)phenyl)-2-propanol] returned an EC50 of 3010 nM. Regarding `C[C@H]1CN(S(=O)(=O)c2ccoc2)CCN1c1ccc(C(C)(O)C(F)(F)F)cc1` (stereo partly drawn) [Example 30, 1,1,1-trifluoro-2-(4-((2S)-4-(3-furanylsulfonyl)-2-methyl-1-piperazinyl)phenyl)-2-propanol], the EC50 in assay [1] is 3120 nM. `O=S(=O)(c1ccccc1)N1CCN(c2ncc(C(O)(C(F)(F)F)C(F)(F)F)cn2)CC1` [Example 23, 1,1,1,3,3,3-hexafluoro-2-(2-(4-(phenylsulfonyl)-1-piperazinyl)-5-pyrimidinyl)-2-propanol]: the EC50 in assay [2] (GK-GKRP EC50 (LC MS/MS)) worked out at 1310 nM.

Regarding `C[C@H]1COCCN1C[C@H]1CN(S(=O)(=O)c2ccc(N)nc2)CCN1c1ccc(C(O)(C(F)(F)F)C(F)(F)F)cc1` [Example 124, 2-(4-((2S)-4-((6-amino-3-pyridinyl)sulfonyl)-2-(((3S)-3-methyl-4-morpholinyl)methyl)-1-piperazinyl)phenyl)-1,1,1,3,3,3-hexafluoro-2-propanol], the results for the EC50 in assay [1] and in assay [3] were 1 nM and 18 nM, respectively. `C[C@H]1CN(S(=O)(=O)c2cccs2)CCN1c1ccc(C(O)(CO)C(F)(F)F)cc1` (mixture of isomers) [Example 67, 2-(4-((2S)-2-methyl-4-(2-thiophenylsulfonyl)-1-piperazinyl)phenyl)-3,3,3-trifluoro-1,2-propanediol]: in assay [2] (setting [4]), the EC50 stood at 670 nM. Turning to `CC(O)(c1ccc(N2CCN(S(=O)(=O)c3nccs3)CC2)cc1)C(F)(F)F` (racemic) [Example 32, 1,1,1-trifluoro-2-(4-(4-(1,3-thiazol-2-ylsulfonyl)-1-piperazinyl)phenyl)-2-propanol trifluoroacetate], the EC50 in assay [2] (GK-GKRP EC50 (LC MS/MS)) amounted to 4750 nM.

In assay [1], `O=S(=O)(c1cccs1)N1CCN(c2ccc(C(O)(C(F)(F)F)C(F)(F)F)cc2)C(Cc2cccc(O)c2)C1` (racemic) [Example 176, 3-((1-(4-(1,1,1,3,3,3-hexafluoro-2-hydroxypropan-2-yl)phenyl)-4-(thiophen-2-ylsulfonyl)piperazin-2-yl)methyl)phenol] displayed an EC50 of 1810 nM. Regarding `CC(O)(c1ccc(N2CCN(S(=O)(=O)c3cccs3)C[C@@H]2Cn2ccc3cccnc32)cc1)C(F)(F)F` (mixture of isomers) [Example 172, 2-(4-((S)-2-((1H-pyrrolo[2,3-b]pyridin-1-yl)methyl)-4-(thiophen-2-ylsulfonyl)piperazin-1-yl)phenyl)-1,1,1-trifluoro-2-propanol], the results for the EC50 in assay [1] and in assay [3] were 253 nM and 249 nM, respectively.

For `CC(O)(c1ccc(N2CCN(S(=O)(=O)c3cccs3)C[C@@H]2Cn2ccc3nccnc32)cc1)C(F)(F)F` (mixture of isomers) [Example 171, 2-(4-((S)-2-((5H-pyrrolo[2,3-b]pyrazin-5-yl)methyl)-4-(thiophen-2-ylsulfonyl)piperazin-1-yl)phenyl)-1,1,1-trifluoro-2-propanol], the EC50 in assay [1] was determined as 649 nM; in assay [3], 801 nM.

In the case of `O=S(=O)(c1cccs1)N1CCN(c2ccc(C(O)(CO)C(F)(F)F)cc2)CC1` (single isomer, unassigned) [Example 66 Peak #2, 3,3,3-trifluoro-2-(4-(4-(2-thiophenylsulfonyl)-1-piperazinyl)phenyl)-1,2-propanediol], the EC50 in assay [2] (setting [4]) came out at 1260 nM. Turning to `O=S(=O)(c1cccs1)N1CCN(c2ccc(C(O)(CO)C(F)(F)F)cc2)CC1` (single isomer, unassigned) [Example 66 Peak #1, 3,3,3-trifluoro-2-(4-(4-(2-thiophenylsulfonyl)-1-piperazinyl)phenyl)-1,2-propanediol], the EC50 in assay [2] (setting [4]) worked out at 4430 nM.

(Values after patent US8431563B2 (priority 2010, dated 2013).)
